Test [1] relates to skin-derived CD11c^+CD103^+DCs. Kind of test: Transwell migration assay. The test is classed as cell-based, mouse. As to the method:
Dendritic cell populations were isolated from lymph nodes and skin of naïve 6 week-old C57BL/6 mice. For this purpose, skin tissue was digested in a similar way as tumor tissue and\ cells from skin and lymph node were stained using the previously described protocol for cell sorting. Subsequently, living, CD45^+, CD11c^+, CD8α^− or CD8α^+ cells were isolated from the lymph node sample as well as living, CD45^+, CD11c^+, CD103^+ from skin samples. Migration assays were performed as described previously with minor adaptations using 5×10^5 cells/well and pre-treatment of DC with pertussis toxin (Sigma) at a final concentration of 20 ng/ml for 1.5 h in indicated (Spranger et al. Journal of immunology 185, 738-747 (2010); herein incorporated by reference in its entirety). As a migration stimulus, CCL4 (R&D) was added to RPMI complete medium at 500 ng/ml or 48 h conditioned media from BP or BPC cell lines were used. At the endpoint, cells from the lower compartment as well as the trans-well were harvested and counted using a standard Neubauer counting chamber. Percentage of migrated cells was calculated as followed: count lower-well/(count upper-well+ count lower-well)*100; with the sum of trans-well and lower well-being >90% of the input cell count.

Test [2] relates to β-catenin-negative tumors (BP-SIY). As to the kind of experiment: Migration of pertussis toxin-pretreated effector 2C T cells into tumor. The test is classed as in vivo, mouse. To be noted: T cells treated 12 h with PTX before injection. As to the method:
For adoptive T cell transfer experiments, tumor development was induced and transfer of 1×10^6 or 10×10^6 T cells was performed when tumors reached 600-1000 mm^3 (approx. 5-6 weeks after induction). Transferred T cells were isolated from gender-matched 2C donor mice using the Miltenyi CD8^+ enrichment Kit II for untouched CD8^+ T cell isolation. After isolation, cells were activated for three days through plate-bound CD3 (0.2 μg/ml; 145-2C11 clone; Biolegend) and CD28 (0.5 μg/ml; 37.51 clone; BD) antibodies. Following activation, T cells were stained with 1 μm CFSE-solution (eBioscience) for 8 min at 37° C. before intravenous injection. Tumor tissue, tumor-draining LNs, and spleen were harvested 3 days following adoptive transfer of T cells and used for flow cytometric analysis. […] For tumor tissues, the entirety of each sample was acquired and total number of CD3^+CD8^+ T cells and transferred 2C cells was assessed. The percentage 2C cells was calculated as [(100/CD3^+/CD8^+ T cells)*2C] and also the number of 2C cells per gram tumor. […]
To assess if lack of T cell infiltration was due to a defect in effector T cell recruitment, an adoptive T cell transfer approach was used, transferring in vitro-activated effector 2C T cells into tumor bearing BP-SIY and BPC-SIY mice. As a first assessment, only the capacity of the effector T cells to migrate into the tumor within 72 h was analyzed. […]

As to pertussis toxin, in test [1] (pretreatment of DC with pertussis toxin), the “DC migration in response to CCL4” value is “eliminated”. In test [2], the “migration of effector 2C T cells into tumor” value is “completely block the migration”.

B1: recombinant murine CCL4: CCL4 (R&D) added as migration stimulus at 500 ng/ml (protein)
chain: APMGSDPPTSCCFSYTSRQLHRSFVMDYYETSSLCSKPAVVFLTKRGRQICANPSEPWVTEYMSDLELN
For B1, the DC migration result in test [1] (CCL4 as migration stimulus) is given as “migrated in response to CCL4”.

The record behind these values is US10753938B2, “Beta-catenin inhibitors in cancer immunotherapy” (The University of Chicago, priority 2015, dated 2020).
